The nature of data set [1]: AUC in Wistar rat at 300 mg/kg, po. It is filed as ADME, organism-based. The conditions noted are these: in vivo.
Data set [2] is described as follows: AUC in Wistar rat at 30 mg/kg, po. It is filed as ADME, organism-based. The note with it: in vivo.
The test system of data set [3] is Rattus norvegicus. In words: In-vivo agonist activity at FXR in Han Wistar rat assessed as upregulation of FGF15 protein level in serum at 1.5 mg/kg administered via oral gavage once daily for 14 days measured 10 hrs post last dose relative to control. It counts as functional.
The nature of data set [4]: Lipophilicity, logD of compound at pH 6.8. It counts as physicochemical. The note with it: buffer.
Data set [5] in a line: Half life in Wistar rat at 3 mg/kg, po. It counts as ADME, organism-based. The note with it: in vivo.
Data set [6] concerns the target T1, G-protein coupled bile acid receptor 1 (Homo sapiens, UniProt Q8TDU6).
T1 sequence (Q8TDU6 whole entry): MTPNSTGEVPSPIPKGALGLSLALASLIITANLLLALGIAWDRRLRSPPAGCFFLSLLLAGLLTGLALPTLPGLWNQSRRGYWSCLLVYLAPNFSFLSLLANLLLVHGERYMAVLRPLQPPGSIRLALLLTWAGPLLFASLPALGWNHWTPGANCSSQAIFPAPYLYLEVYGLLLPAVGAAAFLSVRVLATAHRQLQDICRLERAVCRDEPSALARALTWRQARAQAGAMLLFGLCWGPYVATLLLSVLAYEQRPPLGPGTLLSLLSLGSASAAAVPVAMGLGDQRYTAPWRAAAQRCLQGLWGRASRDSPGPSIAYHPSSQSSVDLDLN
Description: Agonist activity at human GPBAR1 expressed in Jurkat cells assessed as increase in intracellular cAMP level incubated for 1 hr by fluorescence based assay. It is filed as functional, cell-based. (In general: cAMP levels reflect the balance of adenylyl cyclase and phosphodiesterase activity.)

For data set [7], the target named is T2, Retinoic acid receptor RXR-alpha (Homo sapiens, UniProt P19793).
T2 sequence (P19793 whole entry): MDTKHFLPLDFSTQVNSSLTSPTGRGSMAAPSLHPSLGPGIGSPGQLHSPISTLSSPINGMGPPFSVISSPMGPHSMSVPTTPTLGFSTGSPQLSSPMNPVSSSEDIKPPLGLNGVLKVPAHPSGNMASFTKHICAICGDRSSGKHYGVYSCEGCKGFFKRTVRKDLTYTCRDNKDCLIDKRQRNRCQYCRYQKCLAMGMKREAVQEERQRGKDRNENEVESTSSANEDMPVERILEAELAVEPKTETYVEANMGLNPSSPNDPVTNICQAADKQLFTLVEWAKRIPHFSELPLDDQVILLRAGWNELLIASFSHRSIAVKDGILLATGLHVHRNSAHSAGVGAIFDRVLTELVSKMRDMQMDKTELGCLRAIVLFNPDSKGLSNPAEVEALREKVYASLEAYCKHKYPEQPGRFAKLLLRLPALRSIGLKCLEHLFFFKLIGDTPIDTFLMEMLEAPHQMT
Description: Agonist activity at GAL4-fused RXR LBD (unknown origin) expressed in HEK293T cells incubated for 24 by BrightGlo reagent based assay. It is filed as cell-based.

Data set [8] can be described thus: Cmax in Wistar rat at 300 mg/kg, po. It counts as ADME, organism-based. More on the design: dose 300 mg/kg, route oral. The conditions noted are these: in vivo.
A short description of data set [9]: Clearance in rabbit at 5 mg/kg, iv. It is filed as ADME, organism-based, Oryctolagus cuniculus. The conditions noted are these: in vivo.
The nature of data set [10]: Oral bioavailability in Wistar rat at 30 mg/kg. It is filed as ADME, organism-based. The conditions noted are these: in vivo.
For data set [11], the system named is Rattus norvegicus. Description: In-vivo agonist activity at FXR in orally dosed Han Wistar rat assessed as upregulation of FGF15 mRNA level in ileum administered via oral gavage once daily for 14 days measured post last dose by qRT-PCR analysis. It is filed as functional, organism-based. For orientation: Real-time PCR tracks product formation cycle by cycle.

The target of data set [12] is T3, Peroxisome proliferator-activated receptor gamma (Homo sapiens, UniProt P37231).
T3 sequence (P37231 whole entry): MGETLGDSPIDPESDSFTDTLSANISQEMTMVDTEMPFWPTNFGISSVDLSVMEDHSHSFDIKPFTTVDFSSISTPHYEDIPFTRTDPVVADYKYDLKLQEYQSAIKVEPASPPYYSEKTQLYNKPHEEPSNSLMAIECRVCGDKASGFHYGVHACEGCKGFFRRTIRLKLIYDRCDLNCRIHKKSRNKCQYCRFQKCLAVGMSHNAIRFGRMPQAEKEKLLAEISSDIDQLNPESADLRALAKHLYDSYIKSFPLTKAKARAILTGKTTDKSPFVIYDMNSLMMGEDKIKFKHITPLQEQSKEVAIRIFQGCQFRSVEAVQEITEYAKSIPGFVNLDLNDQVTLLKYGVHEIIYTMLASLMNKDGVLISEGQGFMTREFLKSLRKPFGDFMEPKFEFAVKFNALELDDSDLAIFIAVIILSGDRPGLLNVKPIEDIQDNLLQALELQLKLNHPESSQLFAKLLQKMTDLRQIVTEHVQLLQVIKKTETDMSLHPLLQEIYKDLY
Description: Agonist activity at PPARgamma (unknown origin) incubated for 2 hrs by TR-FRET assay. On the technique in general: TR-FRET usually uses a lanthanide donor and a delayed reading to cut background.

Data set [13] can be described thus: Half life in Wistar rat at 3 mg/kg, iv. It counts as ADME, organism-based. The conditions noted are these: in vivo.
In a further data set the target is T4, Glucocorticoid receptor (Homo sapiens, UniProt P04150).
T4 sequence (P04150 whole entry): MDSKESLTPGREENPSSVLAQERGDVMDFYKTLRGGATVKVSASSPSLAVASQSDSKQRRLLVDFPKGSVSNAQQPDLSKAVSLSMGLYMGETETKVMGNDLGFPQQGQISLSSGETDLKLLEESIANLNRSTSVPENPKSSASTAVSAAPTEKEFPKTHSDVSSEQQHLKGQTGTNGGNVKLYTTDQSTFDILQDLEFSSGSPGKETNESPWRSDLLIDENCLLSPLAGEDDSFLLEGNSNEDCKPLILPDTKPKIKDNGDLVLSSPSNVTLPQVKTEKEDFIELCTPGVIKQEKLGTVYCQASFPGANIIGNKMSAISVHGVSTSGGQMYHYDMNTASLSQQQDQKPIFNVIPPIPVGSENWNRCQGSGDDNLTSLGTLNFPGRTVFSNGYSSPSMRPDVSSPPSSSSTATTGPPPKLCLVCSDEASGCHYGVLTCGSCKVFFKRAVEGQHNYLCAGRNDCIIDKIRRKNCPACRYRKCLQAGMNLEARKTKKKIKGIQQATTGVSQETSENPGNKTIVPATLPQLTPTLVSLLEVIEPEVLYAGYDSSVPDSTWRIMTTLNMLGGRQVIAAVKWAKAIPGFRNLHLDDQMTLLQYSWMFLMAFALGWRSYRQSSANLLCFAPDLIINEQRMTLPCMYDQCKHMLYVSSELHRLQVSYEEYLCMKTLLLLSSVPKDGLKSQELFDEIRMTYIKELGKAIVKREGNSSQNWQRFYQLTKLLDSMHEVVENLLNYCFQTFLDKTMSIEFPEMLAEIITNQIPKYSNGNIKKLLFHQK
Description: Agonist activity at GAL4-fused Glucocorticoid receptor (unknown origin) expressed in HEK293T cells incubated for 24 by BrightGlo reagent based assay. It is filed as cell-based.

Data set [14] has as its target T3, Peroxisome proliferator-activated receptor gamma. In words: Agonist activity at GAL4-fused PPARgamma (unknown origin) expressed in HEK293T cells incubated for 24 by BrightGlo reagent based assay. It is filed as cell-based.

pEC50: −log10 of the molar value.

The results in this text go back to ChEMBL document CHEMBL4402557, “Nidufexor (LMB763), a Novel FXR Modulator for the Treatment of Nonalcoholic Steatohepatitis” (J Med Chem, 2020).

The term AUC denotes the area under the concentration-time curve, a measure of exposure. For orientation: logD means lipophilicity at a set pH, counting ionised and neutral species. The term half-life denotes the time needed for the level to fall by half in the phase considered. The low end stands for rapid decline, the high end for slow decline. In general, pEC50 refers to the EC50 on a negative log10 scale, so that one unit is a factor of ten. As usually defined, the Cmax is the highest concentration seen after dosing. The clearance is the volume of plasma or blood freed of the substance per unit of time. A word on the bioavailability: it is dose-corrected exposure relative to a reference, in per cent. Low values mean poor availability, high ones good availability. Regarding `Cn1nc(C(=O)N(Cc2ccccc2)Cc2ccc(C(=O)O)cc2)c2c1-c1cc(Cl)ccc1OC2` [NIDUFEXOR], the AUC in [1] worked out at 1040 µM·h; in data set [2], 76.5 µM·h. Besides, the “fold change (FC)” value in the data set on Rattus norvegicus [3] amounted to 3.5. This molecule showed a logD in data set [4] of 2.7. Further, the half-life was 234 min in data set [5] and 180 min in [13]. For the same molecule, the pEC50 was under 4.10 in data set [6]; under 5.00 in data set [7]; under 4.52 in data set [12]; under 5.00 on Glucocorticoid receptor; under 5.00 in data set [14]. This molecule also yielded a Cmax in data set [8] of 141 µM. The molecule further gave a clearance in data set [9] of 5.6 mL/min/kg. The same molecule returned a bioavailability in [10] of 52%. For the same molecule, the Activity result with Rattus norvegicus [11] was “Dose-dependent effect”.
